# Patent publication US8959984B2, “Proteome-wide quantification of small molecule binding to cellular target proteins” (priority 2007, dated 2015)
# Key:
# Test in all cases: binding to VI16742 beads (HeLa lysate, SILAC MS)
# ILK (IPI00013219) = target: T1, ILK (IPI00013219) (Homo sapiens, UniProt Q13418)
# T1 construct: endogenous in cells; host or cells: HeLa S3
# T1 sequence (Q13418 1-452): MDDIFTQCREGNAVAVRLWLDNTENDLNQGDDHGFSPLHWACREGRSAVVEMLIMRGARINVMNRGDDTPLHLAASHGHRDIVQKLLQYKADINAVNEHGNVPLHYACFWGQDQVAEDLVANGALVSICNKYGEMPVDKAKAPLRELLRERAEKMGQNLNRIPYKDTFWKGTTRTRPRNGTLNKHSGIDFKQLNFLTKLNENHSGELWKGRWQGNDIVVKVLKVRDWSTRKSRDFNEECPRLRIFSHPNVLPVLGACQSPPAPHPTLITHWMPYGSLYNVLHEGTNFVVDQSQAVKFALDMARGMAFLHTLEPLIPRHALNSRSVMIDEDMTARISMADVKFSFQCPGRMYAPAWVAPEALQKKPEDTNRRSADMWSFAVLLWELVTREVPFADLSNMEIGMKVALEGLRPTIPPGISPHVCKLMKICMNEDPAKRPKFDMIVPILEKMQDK
# Procedure, shortened: (§1)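 First, lysate proteins are exposed to beads bearing the pyrido[2,3-d]pyrimidine-based inhibitor. Next, specifically retained proteins are identified.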
# MAP2K2 (IPI00003783) = target: T2, MAP2K2 (IPI00003783) (Homo sapiens, UniProt P36507)
# T2 construct: endogenous in cells; host or cells: HeLa S3
# Procedure, shortened: as §1
# MASTL (IPI00074258) = target: T3, MASTL (IPI00074258) (Homo sapiens, UniProt Q96GX5)
# T3 construct: endogenous in cells; host or cells: HeLa S3
# T3 sequence (Q96GX5 1-879): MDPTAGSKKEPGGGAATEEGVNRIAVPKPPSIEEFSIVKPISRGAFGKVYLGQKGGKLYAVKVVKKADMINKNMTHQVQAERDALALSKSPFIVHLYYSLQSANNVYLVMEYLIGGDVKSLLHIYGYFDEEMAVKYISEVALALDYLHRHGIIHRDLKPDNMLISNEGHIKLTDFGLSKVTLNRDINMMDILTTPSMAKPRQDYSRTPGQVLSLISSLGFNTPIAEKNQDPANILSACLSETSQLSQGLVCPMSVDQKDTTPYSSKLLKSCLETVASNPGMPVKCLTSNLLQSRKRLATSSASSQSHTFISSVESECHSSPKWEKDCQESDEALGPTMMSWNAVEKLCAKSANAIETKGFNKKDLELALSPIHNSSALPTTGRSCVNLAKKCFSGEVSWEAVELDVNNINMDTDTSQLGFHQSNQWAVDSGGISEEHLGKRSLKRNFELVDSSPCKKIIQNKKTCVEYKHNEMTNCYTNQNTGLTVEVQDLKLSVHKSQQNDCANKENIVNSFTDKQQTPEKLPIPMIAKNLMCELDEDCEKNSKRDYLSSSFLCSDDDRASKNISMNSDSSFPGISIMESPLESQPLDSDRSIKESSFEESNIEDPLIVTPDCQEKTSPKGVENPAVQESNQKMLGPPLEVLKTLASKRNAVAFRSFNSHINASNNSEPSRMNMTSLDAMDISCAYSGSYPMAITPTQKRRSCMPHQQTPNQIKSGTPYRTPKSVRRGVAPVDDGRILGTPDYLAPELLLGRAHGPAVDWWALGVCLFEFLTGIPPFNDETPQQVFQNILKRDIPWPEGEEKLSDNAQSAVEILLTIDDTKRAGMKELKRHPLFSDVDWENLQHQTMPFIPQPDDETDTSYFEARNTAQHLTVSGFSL
# Procedure, shortened: as §1
# [1] = target: T4, MSK1 (RPS6KA5, IPI00335101) (Homo sapiens, UniProt O75582)
# T4 construct: endogenous in cells; host or cells: HeLa S3
# Procedure, shortened: as §1
# PIK3C2A (IPI00002580) = target: T5, PIK3C2A (IPI00002580) (Homo sapiens, UniProt O00443)
# T5 construct: endogenous in cells; host or cells: HeLa S3
# Procedure, shortened: as §1
# SART3 (IPI00006025) = target: T6, SART3 (IPI00006025) (Homo sapiens, UniProt Q15020)
# T6 construct: endogenous in cells; host or cells: HeLa S3
# T6 sequence (Q15020 1-963): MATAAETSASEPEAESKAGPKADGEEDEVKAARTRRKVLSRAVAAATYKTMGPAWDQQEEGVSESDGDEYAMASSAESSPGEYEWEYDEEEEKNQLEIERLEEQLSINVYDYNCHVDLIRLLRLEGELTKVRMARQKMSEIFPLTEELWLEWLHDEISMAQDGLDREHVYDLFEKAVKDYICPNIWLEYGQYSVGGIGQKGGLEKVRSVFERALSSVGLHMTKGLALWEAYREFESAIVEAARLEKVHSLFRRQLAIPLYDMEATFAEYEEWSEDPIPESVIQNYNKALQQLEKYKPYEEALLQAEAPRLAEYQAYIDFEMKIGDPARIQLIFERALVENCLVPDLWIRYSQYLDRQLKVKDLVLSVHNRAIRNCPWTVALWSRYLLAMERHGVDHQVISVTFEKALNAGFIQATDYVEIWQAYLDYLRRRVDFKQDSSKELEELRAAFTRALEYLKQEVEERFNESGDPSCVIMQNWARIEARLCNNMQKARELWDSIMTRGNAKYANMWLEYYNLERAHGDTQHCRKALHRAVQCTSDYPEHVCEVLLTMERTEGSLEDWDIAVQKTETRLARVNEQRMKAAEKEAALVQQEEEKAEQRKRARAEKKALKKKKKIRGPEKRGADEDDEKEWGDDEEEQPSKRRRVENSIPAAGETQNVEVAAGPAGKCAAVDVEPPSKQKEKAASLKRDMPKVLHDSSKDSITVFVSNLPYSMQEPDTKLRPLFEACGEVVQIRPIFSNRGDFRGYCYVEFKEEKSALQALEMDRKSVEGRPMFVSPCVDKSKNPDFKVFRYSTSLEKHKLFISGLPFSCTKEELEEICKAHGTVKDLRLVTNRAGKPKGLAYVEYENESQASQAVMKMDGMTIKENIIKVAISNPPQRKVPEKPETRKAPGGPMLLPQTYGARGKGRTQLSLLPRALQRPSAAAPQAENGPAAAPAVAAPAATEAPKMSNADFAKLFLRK
# Procedure, shortened: as §1
# [2] = control beads vs first incubation
# T4 sequence (O75582 whole entry): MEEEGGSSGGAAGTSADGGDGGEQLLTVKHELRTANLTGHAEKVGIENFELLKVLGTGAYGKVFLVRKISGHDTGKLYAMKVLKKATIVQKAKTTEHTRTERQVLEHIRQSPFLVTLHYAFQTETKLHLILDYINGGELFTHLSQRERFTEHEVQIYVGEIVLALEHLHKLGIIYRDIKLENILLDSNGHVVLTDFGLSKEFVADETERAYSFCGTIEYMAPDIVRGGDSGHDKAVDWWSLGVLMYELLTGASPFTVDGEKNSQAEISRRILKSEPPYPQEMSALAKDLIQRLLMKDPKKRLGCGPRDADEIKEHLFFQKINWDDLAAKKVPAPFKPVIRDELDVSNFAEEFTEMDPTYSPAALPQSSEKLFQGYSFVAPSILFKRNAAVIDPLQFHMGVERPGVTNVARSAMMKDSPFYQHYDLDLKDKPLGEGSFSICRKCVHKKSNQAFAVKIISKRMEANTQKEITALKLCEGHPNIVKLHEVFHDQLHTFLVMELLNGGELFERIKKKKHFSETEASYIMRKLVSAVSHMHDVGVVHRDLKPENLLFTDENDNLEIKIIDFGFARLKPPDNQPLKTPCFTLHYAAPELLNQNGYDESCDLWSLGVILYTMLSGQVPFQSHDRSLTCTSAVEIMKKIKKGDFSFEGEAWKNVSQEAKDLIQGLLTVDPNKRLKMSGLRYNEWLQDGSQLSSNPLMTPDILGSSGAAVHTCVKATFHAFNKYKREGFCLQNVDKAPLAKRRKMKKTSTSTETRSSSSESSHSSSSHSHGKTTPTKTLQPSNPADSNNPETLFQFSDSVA
# T5 sequence (O00443 whole entry): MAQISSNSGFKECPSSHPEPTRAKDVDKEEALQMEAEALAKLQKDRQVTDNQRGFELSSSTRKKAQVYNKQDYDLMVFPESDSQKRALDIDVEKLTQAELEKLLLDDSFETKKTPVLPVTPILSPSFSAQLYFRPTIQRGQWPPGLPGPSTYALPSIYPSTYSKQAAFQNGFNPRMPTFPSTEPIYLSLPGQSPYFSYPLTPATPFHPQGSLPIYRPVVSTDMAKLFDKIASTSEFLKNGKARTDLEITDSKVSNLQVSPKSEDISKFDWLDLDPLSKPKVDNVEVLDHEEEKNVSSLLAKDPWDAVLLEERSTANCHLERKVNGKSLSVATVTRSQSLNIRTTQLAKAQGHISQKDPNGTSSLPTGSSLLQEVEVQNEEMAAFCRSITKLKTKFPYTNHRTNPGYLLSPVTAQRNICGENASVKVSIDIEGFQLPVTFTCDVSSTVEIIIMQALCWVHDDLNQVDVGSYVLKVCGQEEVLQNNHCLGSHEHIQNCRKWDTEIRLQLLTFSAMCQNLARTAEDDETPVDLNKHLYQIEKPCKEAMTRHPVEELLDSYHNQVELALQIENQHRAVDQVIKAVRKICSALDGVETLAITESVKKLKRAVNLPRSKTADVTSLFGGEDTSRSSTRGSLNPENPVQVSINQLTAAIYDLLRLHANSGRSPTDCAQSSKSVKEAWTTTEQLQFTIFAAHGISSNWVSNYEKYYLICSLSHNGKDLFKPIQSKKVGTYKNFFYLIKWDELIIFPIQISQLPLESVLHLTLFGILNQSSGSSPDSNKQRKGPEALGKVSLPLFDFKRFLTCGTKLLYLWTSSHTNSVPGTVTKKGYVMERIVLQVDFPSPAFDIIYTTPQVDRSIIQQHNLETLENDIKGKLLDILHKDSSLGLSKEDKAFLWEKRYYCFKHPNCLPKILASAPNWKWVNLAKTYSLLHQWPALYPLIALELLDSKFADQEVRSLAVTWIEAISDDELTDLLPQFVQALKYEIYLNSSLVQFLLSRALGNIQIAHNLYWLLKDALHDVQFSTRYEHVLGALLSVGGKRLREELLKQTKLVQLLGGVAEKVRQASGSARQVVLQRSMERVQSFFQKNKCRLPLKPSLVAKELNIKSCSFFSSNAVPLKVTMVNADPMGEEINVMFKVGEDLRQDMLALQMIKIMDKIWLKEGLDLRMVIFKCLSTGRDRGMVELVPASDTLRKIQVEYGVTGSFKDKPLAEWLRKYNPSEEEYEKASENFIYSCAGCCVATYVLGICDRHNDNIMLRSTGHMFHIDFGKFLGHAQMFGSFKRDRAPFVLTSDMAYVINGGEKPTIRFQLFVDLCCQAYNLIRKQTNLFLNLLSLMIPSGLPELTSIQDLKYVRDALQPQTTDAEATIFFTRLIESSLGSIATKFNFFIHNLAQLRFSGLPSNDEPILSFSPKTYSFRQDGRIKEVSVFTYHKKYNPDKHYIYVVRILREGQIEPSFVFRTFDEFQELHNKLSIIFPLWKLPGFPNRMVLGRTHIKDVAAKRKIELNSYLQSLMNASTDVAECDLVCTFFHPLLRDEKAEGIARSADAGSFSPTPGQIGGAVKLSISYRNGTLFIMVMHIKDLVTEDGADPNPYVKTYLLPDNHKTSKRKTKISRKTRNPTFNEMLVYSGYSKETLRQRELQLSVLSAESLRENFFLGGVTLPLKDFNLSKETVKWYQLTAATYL
# T2 sequence (P36507 whole entry): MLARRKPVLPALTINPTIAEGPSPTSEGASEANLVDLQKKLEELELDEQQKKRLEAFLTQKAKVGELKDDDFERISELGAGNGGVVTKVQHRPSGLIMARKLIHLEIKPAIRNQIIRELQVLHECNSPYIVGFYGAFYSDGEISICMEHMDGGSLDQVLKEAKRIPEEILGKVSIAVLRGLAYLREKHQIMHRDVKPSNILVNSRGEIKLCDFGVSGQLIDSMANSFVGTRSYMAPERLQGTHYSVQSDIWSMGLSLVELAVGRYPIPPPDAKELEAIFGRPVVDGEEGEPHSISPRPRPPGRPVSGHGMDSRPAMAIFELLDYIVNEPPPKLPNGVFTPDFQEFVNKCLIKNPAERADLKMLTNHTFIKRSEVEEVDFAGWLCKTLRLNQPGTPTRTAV
smiles,measurement,setting,value
CC(C)n1c(=O)ccc2cnc(Nc3ccc(OCCN)cc3)nc21 [V16742],r (5 h/2.5 h INC. TIME),ILK (IPI00013219); 5 h vs 2.5 h incubation time,1.47
same,rAVERAGE (CTRL/1 INC),ILK (IPI00013219); [2],0.03
same,Ki,ILK (IPI00013219); immobilized VI16742,172 µM
same,rAVERAGE (2 INC/1 INC),ILK (IPI00013219); second vs first incubation,0.77
same,r (5 h/2.5 h INC. TIME),MAP2K2 (IPI00003783); 5 h vs 2.5 h incubation time,2.03
same,rAVERAGE (CTRL/1 INC),MAP2K2 (IPI00003783); [2],0.03
same,Ki,MAP2K2 (IPI00003783); immobilized VI16742,177 µM
same,rAVERAGE (2 INC/1 INC),MAP2K2 (IPI00003783); second vs first incubation,0.77
same,rAVERAGE (CTRL/1 INC),MASTL (IPI00074258); [2],0.09
same,Ki,MASTL (IPI00074258); immobilized VI16742,109 µM
same,rAVERAGE (2 INC/1 INC),MASTL (IPI00074258); second vs first incubation,0.68
same,rAVERAGE (CTRL/1 INC),[1]; [2],0.03
same,Ki,[1]; immobilized VI16742,217 µM
same,rAVERAGE (2 INC/1 INC),[1]; second vs first incubation,0.81
same,rAVERAGE (CTRL/1 INC),PIK3C2A (IPI00002580); [2],0.18
same,Ki,PIK3C2A (IPI00002580); immobilized VI16742,104 µM
same,rAVERAGE (2 INC/1 INC),PIK3C2A (IPI00002580); second vs first incubation,0.67
same,r (3 MG/1 MG LYSATE),SART3 (IPI00006025); 3 mg vs 1 mg lysate,2.07
same,r (5 h/2.5 h INC. TIME),SART3 (IPI00006025); 5 h vs 2.5 h incubation time,0.90
same,rAVERAGE (CTRL/1 INC),SART3 (IPI00006025); [2],0.05
same,Ki,SART3 (IPI00006025); immobilized VI16742,126 µM
same,rAVERAGE (2 INC/1 INC),SART3 (IPI00006025); second vs first incubation,0.71
